Laboratory results taken from US11891634B2, “PDE5A destabilizing domains” (The Board of Trustees of the Leland Stanford Junior …, priority 2017, dated 2024).

How the values were obtained:
Type in all cases: cell-based, human
[1] = system: HCT 116 cells transduced with the PDE5A DD derived GFP constructs; assay: Response to Tadalafil, GFP expression by FACS in HCT116; settings: 48 hours, HCT116
Procedure, shortened: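 HCT116 cells stably transduced (mCherry-sorted) with lentiviral PDE5A DD–AcGFP constructs, exposed to DMSO or Tadalafil 0.01–100 μM for 48 hrs. GFP mean fluorescence by FACS; stabilization ratio = ligand vs no-ligand signal, basal expression = no-ligand signal vs parental autofluorescence.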

[2] = system: HCT116 cells transduced with the constructs; assay: Response to Sildenafil, GFP expression by flow cytometry in HCT116; settings: for MFI / Stabilization ratio with Sildenafil: 48 hours, HCT116
Procedure, shortened: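 HCT116 cells stably expressing AcGFP-fused destabilizing domains from a lentiviral mCherry-marked vector (sorted on mCherry) were exposed to sildenafil at 0.01–100 μM for 48 hours. GFP mean fluorescence intensity was measured by flow cytometry.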

[3] = system: HCT 116 cells transduced with the PDE5A DD derived GFP constructs; assay: Response to Vardenafil, GFP expression by FACS in HCT116; settings: 48 hours, HCT116
Procedure, shortened: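 HCT116 cells stably carrying lentiviral AcGFP fusions of PDE5A (535-860) mutants, sorted on mCherry, got DMSO or Vardenafil (10 μM, or 0.002–30 μM) for 48 h, and GFP MFI was read by flow cytometry. Basal expression is untreated GFP over parental autofluorescence; the stabilization ratio is treated over untreated MFI.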

Q: Which results are given for “PDE5AN (#3): N-terminal DD 535-860 of PDE5A (Q589R, K633E, T712S, K852E, K795E), SEQ ID NO. 66, fused to AcGFP”?
A: MFI ([1]; DMSO (no Tadalafil)): 6944; expression of GFP (MFI) with increasing doses of Tadalafil ([1]; Tadalafil 0.01 μM to 100 μM): Tadalafil dose dependent increase in the MFI; Stabilization ratio with Tadalafil ([1]; Tadalafil 0.01 μM vs DMSO): 1.0; MFI ([1]; Tadalafil 0.01 μM): 6781; Stabilization ratio with Tadalafil ([1]; Tadalafil 0.02 μM vs DMSO): 1.0; MFI ([1]; Tadalafil 0.02 μM): 6685; Stabilization ratio with Tadalafil ([1]; Tadalafil 0.05 μM vs DMSO): 1.0; MFI ([1]; Tadalafil 0.05 μM): 7013; Stabilization ratio with Tadalafil ([1]; Tadalafil 0.14 μM vs DMSO): 1.0; MFI ([1]; Tadalafil 0.14 μM): 6988; Stabilization ratio with Tadalafil ([1]; Tadalafil 0.41 μM vs DMSO): 1.1; MFI ([1]; Tadalafil 0.41 μM): 7648; Stabilization ratio with Tadalafil ([1]; Tadalafil 1.23 μM vs DMSO): 1.3; MFI ([1]; Tadalafil 1.23 μM): 8973; Stabilization ratio with Tadalafil ([1]; Tadalafil 3.7 μM vs DMSO): 2.0; MFI ([1]; Tadalafil 3.7 μM): 14097; Stabilization ratio with Tadalafil ([1]; Tadalafil 11.11 μM vs DMSO): 3.8; MFI ([1]; Tadalafil 11.11 μM): 26560; Stabilization ratio with Tadalafil ([1]; Tadalafil 33.33 μM vs DMSO): 7.2; MFI ([1]; Tadalafil 33.33 μM): 49889; Stabilization ratio with Tadalafil ([1]; Tadalafil 100 μM vs DMSO): 9.9; MFI ([1]; Tadalafil 100 μM): 68532; MFI ([2]; DMSO (no Sildenafil)): 9835; Stabilization ratio with Sildenafil ([2]; Sildenafil 0.01 μM vs DMSO): 1.0; MFI ([2]; Sildenafil 0.01 μM): 9888; Stabilization ratio with Sildenafil ([2]; Sildenafil 0.02 μM vs DMSO): 1.0; MFI ([2]; Sildenafil 0.02 μM): 10157; Stabilization ratio with Sildenafil ([2]; Sildenafil 0.05 μM vs DMSO): 1.0; MFI ([2]; Sildenafil 0.05 μM): 9952; Stabilization ratio with Sildenafil ([2]; Sildenafil 0.14 μM vs DMSO): 1.1; MFI ([2]; Sildenafil 0.14 μM): 10475; Stabilization ratio with Sildenafil ([2]; Sildenafil 0.41 μM vs DMSO): 1.3; MFI ([2]; Sildenafil 0.41 μM): 12302; Stabilization ratio with Sildenafil ([2]; Sildenafil 1.23 μM vs DMSO): 1.7; MFI ([2]; Sildenafil 1.23 μM): 16826; Stabilization ratio with Sildenafil ([2]; Sildenafil 3.70 μM vs DMSO): 2.8; MFI ([2]; Sildenafil 3.70 μM): 27542; Stabilization ratio with Sildenafil ([2]; Sildenafil 11.11 μM vs DMSO): 5.4; MFI ([2]; Sildenafil 11.11 μM): 52641; Stabilization ratio with Sildenafil ([2]; Sildenafil 33.33 μM vs DMSO): 8.7; MFI ([2]; Sildenafil 33.33 μM): 85509; MFI ([2]; Sildenafil 100.00 μM): 103938; Basal expression ([2]; Table 26, MFI with DMSO / parental HCT116, Sildenafil experiment): 7.6; MFI ([3]; DMSO (no Vardenafil)): 8934; Stabilization ratio ([3]; Table 10, 10 μM Vardenafil vs DMSO): stabilization ratios similar to those observed for sildenafil; Stabilization ratio with Vardenafil ([3]; Vardenafil 0.002 μM vs DMSO): 1.0; MFI ([3]; Vardenafil 0.002 μM): 8767; MFI ([3]; Vardenafil 0.005 μM): 9620; Stabilization ratio with Vardenafil ([3]; Vardenafil 0.014 μM vs DMSO): 1.2; MFI ([3]; Vardenafil 0.014 μM): 10487; Stabilization ratio with Vardenafil ([3]; Vardenafil 0.041 μM vs DMSO): 1.6; MFI ([3]; Vardenafil 0.041 μM): 14086; Stabilization ratio with Vardenafil ([3]; Vardenafil 0.123 μM vs DMSO): 2.3; MFI ([3]; Vardenafil 0.123 μM): 20568; Stabilization ratio with Vardenafil ([3]; Vardenafil 0.370 μM vs DMSO): 4.1; MFI ([3]; Vardenafil 0.370 μM): 36786; Stabilization ratio with Vardenafil ([3]; Vardenafil 1.111 μM vs DMSO): 7.4; MFI ([3]; Vardenafil 1.111 μM): 66543; Stabilization ratio with Vardenafil ([3]; Vardenafil 3.333 μM vs DMSO): 11.1; MFI ([3]; Vardenafil 3.333 μM): 98986; Stabilization ratio with Vardenafil ([3]; Vardenafil 10 μM vs DMSO): 13.4; MFI ([3]; Vardenafil 10 μM): 119591; MFI ([3]; Vardenafil 30 μM): 131667
